Several values for one entry are separate records, joined by “and”; a condition that tells them apart may be missing. Identical values can stand only once. Inconclusive results and toxic doses are left out. No stated cut-off is given here; in the data, active means T/C of 150% or more; inactive means T/C below 125%.
Test system: L1210 leukemia ip in BDF1 mice, survival T/C
Assay: NCI In Vivo Anticancer Drug Screen. Data for tumor model L1210 Leukemia (intraperitoneal) in B6D2F1 (BDF1) mice
Conditions: endpoint: mean survival time, higher = longer survival
Method in brief: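 Tumor was transplanted into mice, which were then dosed with test compound or vehicle alone. Survival was recorded for each group, and the treated figure was expressed relative to the control figure.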

[1] = dose: 100.0 mg/kg/injection, schedule: Q01DX009 (ip), vehicle: Klucel (hydroxypropylcellulose) (HPC)
[2] = dose: 100.0 mg/kg/injection, schedule: Q04DX003 (ip), vehicle: Klucel (hydroxypropylcellulose) (HPC)
[3] = dose: 200.0 mg/kg/injection, schedule: Q01DX009 (ip), vehicle: Klucel (hydroxypropylcellulose) (HPC)
[4] = dose: 200.0 mg/kg/injection, schedule: Q04DX003 (ip), vehicle: Klucel (hydroxypropylcellulose) (HPC)
[5] = dose: 400.0 mg/kg/injection, schedule: Q01DX009 (ip), vehicle: Klucel (hydroxypropylcellulose) (HPC)
[6] = dose: 400.0 mg/kg/injection, schedule: Q04DX003 (ip), vehicle: Klucel (hydroxypropylcellulose) (HPC)
[7] = dose: 100.0 mg/kg/injection, schedule: Q04DX003 (ip), vehicle: saline
[8] = dose: 100.0 mg/kg/injection, schedule: Q04DX002 (ip), vehicle: Klucel (hydroxypropylcellulose) (HPC)
[9] = dose: 100.0 mg/kg/injection, schedule: Q01DX001 (ip), vehicle: saline
[10] = dose: 200.0 mg/kg/injection, schedule: Q01DX001 (ip), vehicle: saline

Measured: T/C

CCc1ccccc1NC(=O)NC(C)C
inactive: [1] 98 % of control | [2] 90 % of control | [3] 91 % of control | [4] 97 % of control | [5] 95 % of control | [6] 92 % of control

CCCc1cccc[n+]1CC(=O)c1ccccc1
inactive: dose: 6.25 mg/kg/injection, schedule: Q01DX009 (ip), vehicle: saline sonified 115 % of control | dose: 12.5 mg/kg/injection, schedule: Q01DX009 (ip), vehicle: saline sonified 107 % of control | dose: 25.0 mg/kg/injection, schedule: Q01DX009 (ip), vehicle: saline sonified 91 % of control

c1ccc2c(c1)OCCOCCOc1ccccc1OCCOCCO2
inactive: dose: 100.0 mg/kg/injection, schedule: Q01DX009 (ip), vehicle: saline 98 % of control and 89 % of control | [7] 94 % of control and 92 % of control | dose: 200.0 mg/kg/injection, schedule: Q01DX009 (ip), vehicle: saline 101 % of control and 92 % of control | dose: 200.0 mg/kg/injection, schedule: Q04DX003 (ip), vehicle: saline 93 % of control and 92 % of control | dose: 400.0 mg/kg/injection, schedule: Q01DX009 (ip), vehicle: saline 94 % of control and 91 % of control | dose: 400.0 mg/kg/injection, schedule: Q04DX003 (ip), vehicle: saline 89 % of control and 90 % of control

CN(C)C(=S)SCCC(=O)O
inactive: [8] 94 % of control | dose: 100.0 mg/kg/injection, schedule: Q04DX002 (ip), vehicle: saline 103 % of control | dose: 200.0 mg/kg/injection, schedule: Q04DX002 (ip), vehicle: Klucel (hydroxypropylcellulose) (HPC) 88 % of control | dose: 200.0 mg/kg/injection, schedule: Q04DX002 (ip), vehicle: saline 100 % of control | dose: 400.0 mg/kg/injection, schedule: Q04DX002 (ip), vehicle: saline 100 % of control

O=C(NC1CCCCC1)C(=S)NC1CCCCC1
inactive: [1] 93 % of control | [3] 101 % of control | [5] 98 % of control

CCCCCCN(CCCCCC)[N+](=O)[O-]
inactive: dose: 100.0 mg/kg/injection, schedule: Q01DX001 (ip), vehicle: other 96 % of control | dose: 200.0 mg/kg/injection, schedule: Q01DX001 (ip), vehicle: other 100 % of control | dose: 400.0 mg/kg/injection, schedule: Q01DX001 (ip), vehicle: other 96 % of control

N=c1ccc2nc3ccc(N)cc3sc-2c1
inactive: dose: 6.25 mg/kg/injection, schedule: Q01DX009 (ip), vehicle: saline 104 % of control | dose: 6.25 mg/kg/injection, schedule: Q04DX003 (ip), vehicle: saline 100 % of control | dose: 12.5 mg/kg/injection, schedule: Q01DX009 (ip), vehicle: saline 106 % of control | dose: 12.5 mg/kg/injection, schedule: Q04DX003 (ip), vehicle: saline 96 % of control | dose: 25.0 mg/kg/injection, schedule: Q01DX009 (ip), vehicle: saline 112 % of control | dose: 25.0 mg/kg/injection, schedule: Q04DX003 (ip), vehicle: saline 107 % of control | dose: 50.0 mg/kg/injection, schedule: Q01DX009 (ip), vehicle: saline 98 % of control | dose: 50.0 mg/kg/injection, schedule: Q04DX003 (ip), vehicle: saline 105 % of control | [7] 105 % of control

Cc1cc(=O)[nH]c(N2CCOCC2)n1
inactive: [9] 106 % of control | [10] 101 % of control

CNC(C)Cc1ccccc1 (configuration not stated)
inactive: dose: 1.87 mg/kg/injection, schedule: Q04DX003 (ip), vehicle: saline 103 % of control and 116 % of control | dose: 3.75 mg/kg/injection, schedule: Q01DX009 (ip), vehicle: saline 95 % of control | dose: 3.75 mg/kg/injection, schedule: Q04DX003 (ip), vehicle: saline 106 % of control and 116 % of control | dose: 7.5 mg/kg/injection, schedule: Q01DX009 (ip), vehicle: saline 103 % of control and 98 % of control | dose: 7.5 mg/kg/injection, schedule: Q04DX003 (ip), vehicle: saline 108 % of control and 97 % of control | dose: 15.0 mg/kg/injection, schedule: Q01DX009 (ip), vehicle: saline 100 % of control and 96 % of control | dose: 15.0 mg/kg/injection, schedule: Q04DX003 (ip), vehicle: saline 95 % of control and 111 % of control | dose: 30.0 mg/kg/injection, schedule: Q01DX009 (ip), vehicle: saline 109 % of control and 112 % of control | dose: 30.0 mg/kg/injection, schedule: Q04DX003 (ip), vehicle: saline 92 % of control and 111 % of control | dose: 60.0 mg/kg/injection, schedule: Q01DX009 (ip), vehicle: saline 107 % of control and 108 % of control | dose: 60.0 mg/kg/injection, schedule: Q04DX003 (ip), vehicle: saline 95 % of control

NC(=O)c1cc(Cl)c(OCc2ccccc2)c(Cl)c1
inactive: dose: 75.0 mg/kg/injection, schedule: Q01DX001 (ip), vehicle: saline with Tween-80 98 % of control | dose: 150.0 mg/kg/injection, schedule: Q01DX001 (ip), vehicle: saline with Tween-80 103 % of control | dose: 300.0 mg/kg/injection, schedule: Q01DX001 (ip), vehicle: saline with Tween-80 98 % of control

CS(=O)(=O)OCCN(CCOS(C)(=O)=O)c1ccc(C=Nc2ccc(-c3csc(-c4ccc(Br)cc4)n3)cc2)c(Cl)c1
inactive: dose: 50.0 mg/kg/injection, schedule: Q04DX003 (ip), vehicle: Klucel (hydroxypropylcellulose) (HPC) 107 % of control | [2] 112 % of control and 115 % of control | [4] 114 % of control and 118 % of control | [6] 123 % of control

Cc1nn(O)ccc1=N
inactive: dose: 56.25 mg/kg/injection, schedule: Q04DX002 (ip), vehicle: saline 104 % of control | dose: 112.5 mg/kg/injection, schedule: Q04DX002 (ip), vehicle: saline 96 % of control | dose: 225.0 mg/kg/injection, schedule: Q04DX002 (ip), vehicle: saline 101 % of control

COc1cccc(/C=C/c2cnc3ccccc3n2)c1OC
inactive: dose: 50.0 mg/kg/injection, schedule: Q01DX009 (ip), vehicle: Klucel (hydroxypropylcellulose) (HPC) 104 % of control | [1] 92 % of control

NCCCNCCO
inactive: [9] 102 % of control | [10] 111 % of control | dose: 400.0 mg/kg/injection, schedule: Q01DX001 (ip), vehicle: saline 105 % of control

Cc1cn(C2CC(O)C(CO)O2)c(=O)n(CCCc2ccccc2)c1=O (configuration not stated)
inactive: dose: 50.0 mg/kg/injection, schedule: Q01DX001 (ip), vehicle: carboxymethylcellulose (CMC) 93 % of control | dose: 100.0 mg/kg/injection, schedule: Q01DX001 (ip), vehicle: carboxymethylcellulose (CMC) 90 % of control | dose: 200.0 mg/kg/injection, schedule: Q01DX001 (ip), vehicle: carboxymethylcellulose (CMC) 87 % of control | dose: 400.0 mg/kg/injection, schedule: Q01DX001 (ip), vehicle: carboxymethylcellulose (CMC) 90 % of control

OCC1OC(n2cnc3c(NCCCCNc4ncnc5c4ncn5C4OC(CO)C(O)C4O)ncnc32)C(O)C1O (configuration not stated)
inactive: dose: 100.0 mg/kg/injection, schedule: Q01DX005 (ip), vehicle: saline 100 % of control | dose: 200.0 mg/kg/injection, schedule: Q01DX005 (ip), vehicle: saline 108 % of control

COc1cccc(C(=O)CC(O)(C(F)(F)F)C(F)(F)F)c1
inactive: dose: 50.0 mg/kg/injection, schedule: Q04DX003 (ip), vehicle: other 100 % of control | dose: 100.0 mg/kg/injection, schedule: Q04DX003 (ip), vehicle: other 96 % of control | dose: 200.0 mg/kg/injection, schedule: Q04DX003 (ip), vehicle: other 98 % of control | dose: 400.0 mg/kg/injection, schedule: Q04DX003 (ip), vehicle: other 104 % of control

CC(=O)OCC(OC(C)=O)C(OC(C)=O)C(OC(C)=O)C(COC(C)=O)OC(C)=O (configuration not stated)
inactive: dose: 100.0 mg/kg/injection, schedule: Q04DX003 (ip), vehicle: saline with Tween-80 97 % of control | dose: 200.0 mg/kg/injection, schedule: Q04DX003 (ip), vehicle: saline with Tween-80 93 % of control | dose: 400.0 mg/kg/injection, schedule: Q04DX003 (ip), vehicle: saline with Tween-80 98 % of control

COc1ccc(C)cc1OC(CCC(C)C)C(C)=O (configuration not stated)
inactive: dose: 75.0 mg/kg/injection, schedule: Q01DX001 (ip), vehicle: carboxymethylcellulose (CMC) 93 % of control | dose: 150.0 mg/kg/injection, schedule: Q01DX001 (ip), vehicle: carboxymethylcellulose (CMC) 96 % of control | dose: 300.0 mg/kg/injection, schedule: Q01DX001 (ip), vehicle: carboxymethylcellulose (CMC) 90 % of control

C/C(=N\O)C(C)(C)C
inactive: dose: 25.0 mg/kg/injection, schedule: Q04DX002 (ip), vehicle: Klucel (hydroxypropylcellulose) (HPC) 98 % of control | dose: 50.0 mg/kg/injection, schedule: Q04DX002 (ip), vehicle: Klucel (hydroxypropylcellulose) (HPC) 91 % of control | [8] 94 % of control and 103 % of control

From PubChem BioAssay AID248 (DTP/NCI, 2004)
